# Test results reported in PubChem BioAssay AID1985 (Southern Research Specialized Biocontainment Screening …, 2009).
# Tested on: S. Typhi PhoP-promoter GFP reporter, fluorescence, 4 h
# Test: modified counter assay using GFP fluorescence, PhoP regulon inhibitor project, dose response (AID 1985)
row,Structure (SMILES),IC50 [µM]
1,CC1CC(=O)c2c(cc3c(-c4c(O)cc(O)c5c(O)c6c(cc45)OC(C)CC6=O)c(O)cc(O)c3c2O)O1 (stereo unspecified),27
2,C1=C(CCNCc2ccccc2)CCCC1,8.38
3,Cc1ccc(C(=O)N/N=C\c2sccc2C)cn1,128
4,CCn1cc(C(=O)NCCCN(C)C)c(=O)c2cc(F)c(N3CCN(C)CC3)cc21,35.5
5,Nc1nnnn1/N=C/c1cc([N+](=O)[O-])ccc1O,91.5
6,N=C(N)c1ccc(/C=C/c2ccc(C(=N)N)cc2O)cc1,16.2
7,COc1cccc(/C=N/NC(=O)CSCC(=O)Nc2ccccc2)c1O,92.5
8,CCN(CC)CCn1c(=N)n(CC(O)COc2cccc(C)c2)c2ccccc21 (stereo unspecified),85.2
9,CCCCOCCCNc1ncnc2c1[nH]c1ccccc12,72.8
10,O=C(/C=C/c1ccc(F)cc1)NC(=S)NNC(=O)c1cnccn1,20.4
11,O=C(O)c1cccc(N2C(=O)CSC2=S)c1,62.1
12,CS(=O)(=O)c1ccc2nc(NC(=O)c3ccc(Cl)nc3)sc2c1,81.9
13,Cc1ccc(OCC(=O)N/N=C/c2ccc([N+](=O)[O-])o2)cc1,28.6
14,O=C(N/N=C/c1c[nH]c2ccccc12)c1cccc(O)c1,130
15,O=C(N/N=C/c1ccc(O)cc1O)C(=O)N/N=C/c1ccc(O)cc1O,108
16,CNCCCCOc1ccc(C(C)(C)C)cc1Cl,61
17,CCCCn1c(=N)n(CC(=O)c2ccc(Br)s2)c2ccccc21,78.7
18,CC1COc2c(N3CCN(C)CC3)c(F)cc3c(=O)c(C(=O)O)cn1c23 (stereo unspecified),< 0.23
19,Oc1c(Br)cc(Br)cc1C=NCc1ccccc1,49.7
20,CNCCCN1c2ccccc2CCc2ccccc21,143
21,CC(C)(c1ccccc1)c1ccc(OCCCN2CCNCC2)cc1,114
22,CCn1nnc(NC(=O)c2ccc([N+](=O)[O-])o2)n1,28.4
23,C#CCOCCOCCOCCNc1nc(N2CCN(C(=O)CCCCCCCCCCNC(=O)[C@@H](CCSC)n3cc(CCO)nn3)CC2)nc(N2CCN(C(=O)CCCCCCCCCCNC(=O)[C@H]([C@@H](C)CC)n3cc(CCCCCN)nn3)CC2)n1,110
24,CN(C)CCCn1c(SCC(=O)N2c3ccccc3Sc3ccccc32)nc2ccccc2c1=O,145
25,O=C(Oc1ccccc1)c1cc2ccccc2o1,76.2

row,Structure (SMILES),IC50 [µM]
1,Oc1ccc(COCc2ccccc2)c2cccnc12,47.8
2,CCCCC(=O)NC(=S)NNC(=O)CC,50.2
3,C/C(=N\NC(=O)c1ccc(CN2CCc3ccccc3C2)cc1)c1ccccc1O,42
4,OC(CNCC1CCCO1)Cn1c2ccc(Cl)cc2c2cc(Cl)ccc21 (stereo unspecified),38.8
5,O=C(CSc1nc2ccccc2[nH]1)Nc1ccc(F)c(F)c1,46.9
6,O=C(CCN1CCN(c2ccccc2)CC1)c1ccc(Br)cc1,98.6
7,CCN(CC)CCNc1nc(-c2ccc(OC)cc2)c(-c2ccc(OC)cc2)s1,< 0.23
8,Oc1[nH]c2ccc(Br)cc2c1N=NC(=S)N1CCOCC1,47.3
9,O=C(CSc1ccccn1)N/N=C/c1cc([N+](=O)[O-])ccc1O,35.6
10,Cc1ccc(Cn2c(=N)n(CC(O)COc3ccccc3)c3ccccc32)cc1 (stereo unspecified),83.6
11,CCOc1ccc(/C=N/NC(=O)c2[nH]ncc2Br)c(O)c1,65.4
12,Nc1nc(F)nc2c1ncn2[C@@H]1O[C@H](CO)[C@@H](O)[C@H]1O,3.76
13,COc1ccccc1Nc1c2ccccc2nc2ccccc12,80.8
14,NC(=O)SCC(=O)Nc1cccc(Cl)c1,29.9
15,Cc1ccc2c(c1)c1c(n2CC(O)CNC2CCCCC2)CCCC1 (stereo unspecified),136
16,Cc1cccc(Nc2cc(C)c3c(O)cccc3n2)c1C,49.6
17,CCN1/C(=C/c2cc[n+](C)cc2)C=Cc2cc(C)ccc21,78.6
18,O=C(Nc1ccc2nc(-c3ccc(Br)o3)[nH]c2c1)c1cccs1,78.7
19,O=C(NC(=S)NNC(=O)c1cccs1)c1ccco1,39.7
20,N#C/C(=C\c1ccc[nH]1)C(=O)NC1CC1,63.7
21,O=c1cc(-c2ccccc2)nc2nc(-c3ccco3)[nH]n12,139
22,CCC(/C=C1\Sc2ccc(OC)cc2N1CCO)=C\c1sc2ccc(OC)cc2[n+]1CCO,95
23,O=C(/C=C/c1ccccc1)NC(=S)NNC(=O)c1cnccn1,146
24,CN(C)CCCN(C(=O)CCc1ccccc1)c1nc2ccc(Br)cc2s1,110
25,CN(C)CC/C=C1\c2ccccc2Sc2ccc(Cl)cc21,98.5

row,Structure (SMILES),IC50 [µM]
1,NC1CCN(c2c(F)cc3c(=O)c(C(=O)O)cn(C4CC4)c3c2Cl)C1 (stereo unspecified),< 0.23
2,Clc1ccc(OCCCNCc2ccccc2)c2ccccc12,33.8
3,CCc1ccc(-c2nn(-c3ccccc3)cc2CSC(=N)N)cc1,34.1
4,O=[N+]([O-])c1cc(Cl)c2cccnc2c1O,1.46
5,Cc1ccc(Nc2nc(NCCO)c3ccccc3n2)cc1C,80.8
6,O=Nc1ccc(O)c2ncccc12,24.6
7,CC1(C)N=C(N)NC(Nc2ccc(Br)cc2)=N1,76.4
8,C/C(=N\NC(=O)c1ccccc1O)c1cccs1,89.3
9,CCOC(=O)N/N=C\c1ccc([N+](=O)[O-])o1,23.7
10,CCCCCN=C(N)N/N=C/c1c[nH]c2ccc(OC)cc12,35.6
11,Cc1ccc(S(=O)(=O)NNc2ccccc2)c(C)c1,117
12,Cc1ccc(-c2c[n+](CC(=O)Nc3nc(-c4ccccc4)cs3)c3n2CCC3)cc1,90.4
13,CCOc1cc(C(c2c(C)[nH][nH]c2=O)c2c(C)[nH][nH]c2=O)cc([N+](=O)[O-])c1O,75.6
14,OC1(c2ccc(Cl)cc2)CCN(Cc2c[nH]c3ccccc23)CC1,101
15,O=C(N/N=C/c1cc([N+](=O)[O-])ccc1O)C1CC1,14.9
16,CCN(CC)c1ccc(CNc2nc3ccccc3n2CCN2CCCCC2)cc1,145
17,CC(=O)OC1=C(O)C(=O)c2ccccc2C1=O,78.6
18,O=C(N/N=C/c1c[nH]c2ccccc12)c1cc2ccccc2o1,33.5
19,CCCCCCC[N+](CC)(CC)CCCCc1ccc(Cl)cc1,80
20,CCOC(=O)N1CCN(CCC(=O)c2ccc(Cl)cc2)CC1,108
21,CN(C)CCNc1oc(COc2ccc(-c3ccccc3)cc2)nc1C#N,78.8
22,CC(=O)NC(=S)NNC(=O)c1ccc(Br)cc1,33.8
23,O=C(NC(=S)NNC(=O)c1ccccc1O)c1ccco1,23.8
24,O=C(Nc1nnc(C2COc3ccccc3O2)o1)c1ccc(F)cc1 (stereo unspecified),40.9
25,CCOC(=O)N1CCC(=NNc2ccnc3cc(Cl)ccc23)CC1,61.2

row,Structure (SMILES),IC50 [µM]
1,CN1CCc2nc(SCC(=O)Nc3ccc(Cl)cc3)c(C#N)cc2C1,67.2
2,CN1CCN(C(c2ccc(Cl)cc2)c2cc(Cl)c3cccnc3c2O)CC1 (stereo unspecified),31.8
3,Cc1ccc(C(OCC(O)CNCc2ccc(F)cc2)c2ccccc2)cc1 (stereo unspecified),74.4
4,COc1cc([N+](=O)[O-])cc(/C=N/NC(=O)c2cccnc2)c1O,66.7
5,Cc1ccc(NC(=O)c2ccc([N+](=O)[O-])o2)c(C)c1,38.9
6,O[C@@H](c1cc(C(F)(F)F)nc2c(C(F)(F)F)cccc12)[C@H]1CCCCN1,90.6
7,O=C(CN1CC(c2ccccc2)CC1=O)N/N=C/c1cc(Br)ccc1O (stereo unspecified),46.4
8,CCn1cc(C(=O)O)c(=O)c2cc(F)c(N3CCN(C)CC3)cc21,0.427
9,CCCCCCCCCCn1c2c(c(=N)c3c1CCC3)CCC2,144
10,CCCCCCCCCn1c2c(c(=N)c3c1CCC3)CCC2,36.7
11,Cc1ccc(C(=O)NNC(=S)NC(=O)c2ccccc2)cc1,62.8
12,CNCC[C@H](Oc1cccc2ccccc12)c1cccs1,106
13,COc1cc([N+](=O)[O-])cc(/C=N/NC(=O)C(O)(c2ccccc2)c2ccccc2)c1O,57.5
14,COc1cc(CNCCc2c[nH]c3ccccc23)ccc1OCc1ccc(F)cc1,82.7
15,O=C(Nc1nc(-c2ccccn2)cs1)c1ccc(Br)s1,20.1
16,O=C(N/N=C/c1sc2ccccc2c1O)c1cccc2ccccc12,26.7
17,O=C1c2cccc3cccc(c23)C(=O)C1(O)O,28.8
18,O=C(C[n+]1cc(Br)cc2ccccc21)c1ccc(Cl)cc1,57.8
19,Oc1ccc(C[C@@H]2CNCCN2CCC23CC4CC(CC(C4)C2)C3)cc1,78.9
20,CC(C(=O)NC1C=CS(=O)(=O)C1)N1C(=O)/C(=C/c2cccc(Cl)c2)SC1=S (stereo unspecified),33.6
21,COc1ccc(C(C[N+](=O)[O-])C2(c3ccc(OC)c(OC)c3)C(=O)c3ccccc3C2=O)cc1 (stereo unspecified),8.15
22,COc1ccc(CCN2CCC(Nc3nc4ccccc4n3Cc3ccc(F)cc3)CC2)cc1,105
23,Nc1cccc2nc3ccccc3cc12,44.5
24,FC(F)Oc1ccc(NC(=S)NCc2nc3ccccc3[nH]2)cc1,33.7
25,COc1ccc(CNc2ncnc3c2[nH]c2ccccc23)cc1,59.2

row,Structure (SMILES),IC50 [µM]
1,CCCCCCCCNc1ncnc2ccccc12,35.8
2,OC(CNCc1ccco1)Cn1c2ccc(Br)cc2c2cc(Br)ccc21 (stereo unspecified),28
3,CCN1CCN(Cc2ccc(NC(=O)c3cc(NC(=O)c4cc(-c5ccc(OC)cc5)n[nH]4)cc(OC)c3)cc2C(F)(F)F)CC1,102
4,CCCCCCCSc1cc(OC)c(CCN(C)C)cc1OC,83.5
5,Cc1ccc(S(=O)(=O)CCC(=O)c2ccc(O)cc2O)cc1,69.1
6,c1ccc(CN2CCN(c3ncnc4c3[nH]c3ccccc34)CC2)cc1,103
7,Oc1[nH]c2ccccc2c1N=NC(=S)N1CCOCC1,17.4
8,O=C1C=CC(=O)N1CCCCCCN1C(=O)C=CC1=O,112
9,O=[N+]([O-])c1ccc(O)c(/C=N/Nc2ccccn2)c1,15.2
10,NC(=O)c1ccc(N=C2C(=O)Nc3ccc([N+](=O)[O-])cc32)cc1,31.8
11,N#C/C(=C(/O)c1ccco1)c1nc2ccccc2s1,54.8
12,CCc1ccc(NC(=O)Nc2ccncc2)cc1,51.8
13,Cc1ccc(Nc2cc(C)nn2-c2nc(C)cc(=O)[nH]2)cc1,10.2
14,CCCCNC1=CC(=O)C(=O)c2ccccc21,104
15,CCCCOc1ccc(CSC(=N)N)cc1Cl,31.9
16,C/C(=N\NC(=O)c1cccc(Br)c1)c1ccccn1,54.4
17,CCCCn1c(NS(=O)(=O)c2ccccc2)c(C(=O)OCC)c2nc3ccccc3nc21,110
18,O=C(Nc1ccc(-c2nc3ccccc3[nH]2)cc1)c1ccco1,87
19,CC(=O)NC(c1ccc2ccccc2c1)c1ccc2cccnc2c1O (stereo unspecified),68.4
20,O=S1(=O)Nc2c(ccc3cccnc23)-c2ccccc21,1.17
21,O=C(CSc1ccccn1)N/N=C/c1c[nH]c2ccccc12,133
